According to patent US20190161451A1, “HERBICIDAL PYRIMIDINE COMPOUNDS” (BASF SE, priority 2016, published 2019):

Assays:
[1] = test system: ALOMY; test: greenhouse experiment, post-emergence treatment; format: in vivo, Alopecurus myosuroides; details: post-emergence method, application rate 1000 g/ha, scale from 0 to 100
From the text: (§1) The culture containers used were plastic flowerpots containing loamy sand with approximately 3.0% of humus as the substrate. The seeds of the test plants were sown separately for each species.
(§2) For the post-emergence treatment, the test plants were first grown to a height of 3 to 15 cm, depending on the plant habit, and only then treated with the active ingredients which had been suspended or emulsified in water. For this purpose, the test plants were either sown directly and grown in the same containers, or they were first grown separately as seedlings and transplanted into the test containers a few days prior to treatment.
(§3) Depending on the species, the plants were kept at 10-25° C. or 20-35° C., respectively.
(§4) The test period extended over 2 to 4 weeks. During this time, the plants were tended, and their response to the individual treatments was evaluated.
(§5) Evaluation was carried out using a scale from 0 to 100. 100 means no emergence of the plants, or complete destruction of at least the aerial moieties, and 0 means no damage, or normal course of growth. A good herbicidal activity is given at values of at least 70 and a very good herbicidal activity is given at values of at least 85.
(§6) The plants used in the greenhouse experiments were of the following species: […]

[2] = test system: AVEFA; test: greenhouse experiment, post-emergence treatment; format: in vivo, Avena fatua; details: post-emergence method, application rate 1000 g/ha, scale from 0 to 100
From the text: as §1, §2, §3, §4, §5, §6

[3] = test system: ECHCG; test: greenhouse experiment, pre-emergence treatment; format: in vivo, Echinocloa crus-galli; details: pre-emergence method, application rate 1000 g/ha, scale from 0 to 100
From the text: as §1
(§7) For the pre-emergence treatment, the active ingredients, which had been suspended or emulsified in water, were applied directly after sowing by means of finely distributing nozzles.
(§8) The containers were irrigated gently to promote germination and growth and subsequently covered with transparent plastic hoods until the plants had rooted. This cover caused uniform germination of the test plants, unless this had been impaired by the active ingredients.
as §3, §4, §5, §6

[4] = test system: APESV; test: greenhouse experiment, pre-emergence treatment; format: in vivo, Apera spica-venti; details: pre-emergence method, application rate 1000 g/ha, scale from 0 to 100
From the text: as §1, §7, §8, §3, §4, §5, §6

[5] = test system: SETFA; test: greenhouse experiment, pre-emergence treatment; format: in vivo, Setaria faberi Herrm; details: pre-emergence method, application rate 1000 g/ha, scale from 0 to 100
From the text: as §1, §7, §8, §3, §4, §5, §6

O=C(O)c1nc(C2CC2)ncc1-c1c(Cl)ccc2c1OCO2 [example 14]
herbicidal activity against ALOMY [1]: good (A good herbicidal activity is given at values of at least 70)
herbicidal activity against AVEFA [2]: good (A good herbicidal activity is given at values of at least 70)
herbicidal activity against ECHCG [3]: very good (a very good herbicidal activity is given at values of at least 85)
herbicidal activity against APESV [4]: very good (a very good herbicidal activity is given at values of at least 85)

COC(=O)c1nc(C2CC2)ncc1-c1ccc2ccccc2c1Cl [example 26]
herbicidal activity against SETFA [5]: very good (a very good herbicidal activity is given at values of at least 85)
